Source: US20230265104A1, “NOVEL HETEROCYCLIC COMPOUNDS” (PRISM BIOLAB CO., LTD., priority 2020, published 2023)

System: PANC-1 (human pancreatic cancer-derived cell line)
Assay: MTS assay on Panc-1 (human pancreas carcinoma cell line)
Assay type: cell-based
Settings: 144 h; for IC50: PANC-1, MTS method, cell survival 6 days after exposure, 4-parameter logistic fit; for inhibition at 10 µM: read-out: Growth inhibition (%) 10 μM; for inhibition at 0.3125 µM: read-out: Growth inhibition (%) 0.3125 μM
Experimental: Experimental Example: MTS Assay on Panc-1 (Human Pancreas Carcinoma Cell Line) cell line name: PANC-1 derived from: human pancreas glandular cancer purchased from: ATCC product code: CRL-1469 proliferation medium: D-MEM+10% FBS culture environment: 37° C., 5% CO2 seeding density: 5.0×10^5 cells/25 cm^2 solvent control substance: DMSO (HYBRI-MAX®, Sigma-Aldrich Corp.) test substance: Example compound (ID-1-ID-13) A DMSO solution of the test substance was prepared by serially diluting (common ratio 2) each test substance with DMSO.
A solvent control substance sample and a test substance sample were exposed to a human pancreatic cancer-derived cell line (PANC-1), and the survival rate of the cell 6 days later was measured by the MTS method. The measurement was performed 3 times and the average thereof was adopted. The survival rate of the cell in each test substance sample was calculated by the following formula 1 with the value at exposure of the solvent control substance sample as 100% survival rate. […]
survival rate (%)=100×absorbance of each test substance sample/absorbance of solvent control substance sample formula 1 Normalized values calculated by the following formula 2 from the absorbances of each sample at 492 nm and 630 nm and the absorbances of the blank were used as the absorbances in the above-mentioned formula 1. […]
normalized value (ABS492 nm-630 nm)=(ABSsa 492 nm-ABSsa 630 nm)−(ABSbl 492 nm-ABSbl 630 nm) ABSsa 492: absorbance of each sample at wavelength 492 nm ABSsa 630: absorbance of each sample at wavelength 630 nm ABSbl 492: absorbance of blank corresponding to each sample at wavelength 492 nm ABSbl 630: absorbance of blank corresponding to each sample at wavelength 630 nm formula 2 […]
The analysis was performed by using nplr package on R (The R Foundation for Statistical Computing) and estimating the logistic regression curve (4-parameter).

Structure (SMILES) | IC50 [µM] | inhibition at 10 µM (PANC-1, MTS, 6 days) [%] | further results
CC(=O)N1CCC(N2CCC(N3C[C@@H]4N(C(=O)/C=C/c5ccccn5)O[C@H](CC(C)C)C(=O)N4[C@@H](CC(C)C)C3=O)CC2)CC1 [ID-41, (3R,6S,9aS)-8-(1′-acetyl-[1,4′-bipiperidin]-4-yl)-3,6-diisobutyl-1-((E)-3-(pyridin-2-yl)acryloyl)tetrahydropyrazino[2,1-c][1,2,4]oxadiazine-4,7(3H,6H)-dione] | 6.3 | 98.5 | –
CC(C)C[C@H]1ON(C(=O)/C=C/c2ccccn2)[C@H]2CN(C3CCN(C)CC3)C(=O)[C@H](Cc3ccc(O)cc3)N2C1=O [ID-61, (3R,6S,9aS)-6-(4-hydroxybenzyl)-3-isobutyl-8-(1-methylpiperidin-4-yl)-1-((E)-3-(pyridin-2-yl)acryloyl)tetrahydropyrazino[2,1-c][1,2,4]oxadiazine-4,7(3H,6H)-dione] | 7.3 | – | –
CC(C)C[C@H]1ON(C(=O)/C=C/c2ccccn2)[C@H]2CN(C3CCN(C)CC3)C(=O)[C@H](Cc3ccccc3)N2C1=O [ID-66, (3R,6S,9aS)-6-benzyl-3-isobutyl-8-(1-methylpiperidin-4-yl)-1-((E)-3-(pyridin-2-yl)acryloyl)tetrahydropyrazino[2,1-c][1,2,4]oxadiazine-4,7(3H,6H)-dione] | 5.2 | 96.7 | –
CC(C)C[C@H]1ON(C(=O)/C=C/c2nc3c(O)cccc3s2)[C@H]2CN([C@H]3CCN(CCCCO)C3)C(=O)[C@H](CC(C)(C)C)N2C1=O [ID-85, (3R,6S,9aS)-1-((E)-3-(4-hydroxybenzo[d]thiazol-2-yl)acryloyl)-8-((S)-1-(4-hydroxybutyl)pyrrolidin-3-yl)-3-isobutyl-6-neopentyltetrahydropyrazino[2,1-c][1,2,4]oxadiazine-4,7(3H,6H)-dione] | 0.11 | – | inhibition at 0.15625 µM (PANC-1, MTS, 6 days, 0.15625 μM, read-out: Growth inhibition (%) 0.15625 μM): 58.9%
CC(C)C[C@H]1ON(C(=O)/C=C/c2nc(C#CCCCCCO)cs2)[C@H]2CN(C3CN(CCCCO)C3)C(=O)[C@H](CC(C)(C)C)N2C1=O [ID-91, (3R,6S,9aS)-8-(1-(4-hydroxybutyl)azetidin-3-yl)-1-((E)-3-(4-(7-hydroxyhept-1-yn-1-yl)thiazol-2-yl)acryloyl)-3-isobutyl-6-neopentyltetrahydropyrazino[2,1-c][1,2,4]oxadiazine-4,7(3H,6H)-dione] | 0.12 | – | –
CC(C)C[C@H]1CN(C(=O)/C=C/c2nc3ccccc3s2)[C@H]2CN([C@@H]3CCN(CCCCO)C3)C(=O)[C@H](CC(C)(C)C)N2C1=O [ID-96, (3S,6S,9aR)-1-((E)-3-(benzo[d]thiazol-2-yl)acryloyl)-8-((R)-1-(4-hydroxybutyl)pyrrolidin-3-yl)-3-isobutyl-6-neopentylhexahydro-4H-pyrazino[1,2-a]pyrimidine-4,7(6H)-dione] | – | 101 | inhibition at 0.3125 µM (PANC-1, MTS, 6 days): -1.7%
CCC(CC)C[C@H]1ON(C(=O)/C=C/c2cnc3ccccc3n2)[C@H]2CN([C@@H]3CCN(CCCCO)C3)C(=O)[C@H](CC(C)(C)C)N2C1=O [ID-107, (3R, 6S, 9aS)-3-(2-ethylbutyl)-8-((R)-1-(4-hydroxybutyl)pyrrolidin-3-yl)-6-neopentyl-1-((E)-3-(quinoxalin-2-yl)acryloyl)tetrahydropyrazino[2,1-c][1,2,4]oxadiazine-4,7(3H,6H)-dione] | 0.2 | – | inhibition at 0.3125 µM (PANC-1, MTS, 6 days): 94.3%; inhibition at 1 µM (PANC-1, MTS, 6 days, 1 μM, read-out: Growth inhibition (%) 1 μM): 98.5%
CC(C)C[C@H]1ON(C(=O)/C=C/c2nccs2)[C@H]2CN(CCC(N)=O)C(=O)[C@H](CC(C)C)N2C1=O [ID-17, 3-((3R,6S,9aS)-3,6-diisobutyl-4,7-dioxo-1-((E)-3-(thiazol-2-yl)acryloyl)hexahydropyrazino[2,1-c][1,2,4]oxadiazin-8(1H)-yl)propanamide] | 11.4 | – | inhibition at 30 µM (PANC-1, MTS, 6 days, 30 μM, read-out: Growth inhibition (%) 30 μM): 100%
